For assay [1], the system named is RAW264.7. The experiment in a line: Cytotoxicity against mouse RAW264.7 cells assessed as cell viability by MTT assay. It is filed as functional, cell-based.
For assay [2], the system named is RAW264.7. The experiment in a line: Antiinflammatory activity against LPS-stimulated mouse RAW264.7 cells assessed as downregulation of LPS-induced iNOS expression preincubated with compound for 2 hrs followed by LPS stimulation and measured after 24 hrs by Western blot analysis. It is filed as functional, cell-based. The settings on record: dose 10-40 µM, time 26.0 hrs.

For assay [3], the system named is RAW264.7. The experiment in a line: Antiinflammatory activity against LPS-stimulated mouse RAW264.7 cells assessed as inhibition of NO production preincubated with compound for 2 hrs followed by LPS stimulation and measured after 24 hrs by Griess reagent based analysis. It is filed as functional, cell-based. The settings on record: dose 10-40 µM, time 26.0 hrs.

Assay [4] relates to RAW264.7. The experiment in a line: Antiinflammatory activity against LPS-stimulated mouse RAW264.7 cells assessed as suppression of NO secretion at 20 uM preincubated with compound for 2 hrs followed by LPS stimulation and measured after 24 hrs by Griess reagent based assay relative to control. It is filed as functional. The settings on record: time 26 hrs.
For assay [5], the system named is MCF7. The experiment in a line: Anticancer activity against human MCF7 cells assessed as inhibition of cell growth incubated for 48 hrs by MTT assay. It is filed as functional, cell-based. The settings on record: MCF7, 48 h.
The subject of assay [6] is A549. The experiment in a line: Anticancer activity against human A549 cells assessed as inhibition of cell growth incubated for 48 hrs by MTT assay. It counts as functional, cell-based. The following applies: A549, 48 h.
For assay [7], the system named is NCI-H1975. The experiment in a line: Anticancer activity against human NCI-H1975 cells assessed as inhibition of cell growth incubated for 48 hrs by MTT assay. It counts as functional, cell-based. The following applies: NCI-H1975, 48 h.
The test system of assay [8] is MDA-MB-231. The experiment in a line: Anticancer activity against human MDA-MB-231 cells assessed as inhibition of cell growth incubated for 48 hrs by MTT assay. It is filed as functional, cell-based. The following applies: MDA-MB-231, 48 h.

pIC50: −log10 of the molar value. Activity calls are given as the source filed them. The calls are words filed in the database; no cut-off is given here.

With `C[C@@H]1CC[C@]2(C(=O)O)CC[C@]3(C)C(=CCC4[C@@]5(C)C[C@@H](O)[C@H](OC(=O)/C=C/c6ccc(O)cc6)C(C)(C)[C@@H]5CC[C@]43C)C2[C@H]1C` (stereo partly specified), in assay [1], the result was inactive.

On to `CC(C)c1ccc2c(c1O)CC[C@@H]1[C@@](C)(CO)CCC[C@@]21C`, for which the Activity result is “Dose-Dependent Effect” in assay [2] and 94% in assay [4]. In addition, the result in assay [1] was inactive. The inhibition entry in assay [3] is “Dose-Dependent Effect”.

`CC(C)c1c(O)ccc2c1CC[C@H]1C(C)(C)[C@@H](O)CC[C@]21C`: the outcome in assay [1] was inactive.

As to `CC1(C)CC[C@]2(C(=O)O)CC[C@]3(C)C(=CCC4[C@@]5(C)C[C@@H](O)[C@H](OC(=O)/C=C/c6ccc(O)cc6)C(C)(C)[C@@H]5CC[C@]43C)C2C1` (stereo partly specified), the outcome in assay [1] was inactive.

`CC(C)c1cc2c(cc1O)[C@@]1(C)CCCC(C)(C)[C@@H]1CC2=O`: the result in assay [1] was inactive.

With `COc1cc(/C=C/C(=O)O[C@H]2[C@H](O)C[C@]3(C)C4CC=C5C6CC(C)(C)CC[C@]6(C(=O)O)CC[C@@]5(C)[C@]4(C)CC[C@H]3C2(C)C)ccc1O` (stereo partly specified), in assay [1], the outcome was inactive.

Consider `C=C1C(=O)O[C@H]2C3=CC[C@@H]4C(C)(C)C(=O)CC[C@@]4(C)[C@@H]3CC[C@@H]12`, for which the result in assay [1] was inactive. The pIC50 in assay [5] is less than 5.00; in assay [6] it was less than 5.00; in assay [7], less than 5.00; in assay [8], 5.14.

For the molecule `CC(C)c1cc2c(cc1O)CC[C@H]1C(C)(C)[C@@H](O)CC[C@]21C`, the Activity result is “Dose-Dependent Effect” in assay [2] and 91% in assay [4]. For the same molecule, in assay [1], the outcome was inactive. Moreover, the inhibition entry in assay [3] is “Dose-Dependent Effect”.

On to `C=C1CC[C@@H]2[C@](C)(C(=O)O)CCC[C@@]2(C)C1CCC1=CCOC1=O` (stereo partly specified), for which the result in assay [1] was inactive.

In the case of `CC(C)c1cc2c(cc1O)[C@@]1(C)CC[C@H](O)[C@](C)(C=O)[C@@H]1CC2`, in assay [1], the outcome was inactive. Besides, in assay [4], the Activity is given as 95%.

In the case of `CC1(C)CC[C@]2(C(=O)O)CC[C@]3(C)C(=C2C1)CCC1[C@@]2(C)C[C@@H](O)[C@H](O)C(C)(C)[C@@H]2CC[C@]13C` (stereo partly specified), in assay [1], the result was inactive.

With `CC(C)[C@@]1(O)CCC2=C(C1)C(=O)C[C@H]1C(C)(C)CC[C@H](O)[C@]21C`, the outcome in assay [1] was inactive. Also, the inhibition entry in assay [3] is “Dose-Dependent Effect”.

For `C=C1CC[C@@H]2[C@](C)(CO)CCC[C@@]2(C)C1CCC1=CCOC1=O` (stereo partly specified), the result in assay [1] was inactive.

In the case of `CC(C)c1cc2c(cc1O)C(=O)C[C@H]1[C@@](C)(CO)CCC[C@]21C`, the result in assay [1] was inactive. In addition, in assay [3], the inhibition entry was “Dose-Dependent Effect”.

As for `C=C1[C@@H]2CC[C@H]3[C@]4(C)CC[C@@H](O)C(C)(C)[C@H]4C[C@H](OC(C)=O)[C@]3(C2)[C@@H]1O`, the outcome in assay [1] was inactive.

As to `C=C1C(=O)[C@]23C[C@H]1CC[C@H]2[C@]1(C)CC[C@@H](O)C(C)(C)[C@H]1C[C@@H]3OC(C)=O`, in assay [1], the outcome was inactive. Moreover, the negative logarithm of the IC50 (pIC50) in assay [5] was 5.13; in assay [6], 5.33; in assay [7] it was 5.20; in assay [8], 5.18.

In the case of `CC(C)[C@H]1CC[C@H]2[C@@H](CC[C@H]3C(C)(C)CCC[C@]23C)C1`, the inhibition result in assay [3] is “Active”.

As for `COc1cc2c(cc1C(C)C)CC[C@H]1[C@@](C)(C(=O)O)CCC[C@]21C`, in assay [1], the outcome was inactive.

For `CC(C)c1cc2c(cc1O)[C@@]1(C)CCC[C@](C)(CO)[C@@H]1C=C2`, the outcome in assay [1] was inactive.

Consider `CC1(C)CC[C@]2(C(=O)O)CC[C@]3(C)C(=CC[C@@H]4[C@@]5(C)C[C@@H](O)[C@H](O)C(C)(C)[C@@H]5CC[C@]43C)[C@@H]2C1`, for which the outcome in assay [1] was inactive.

Turning to `CC(C)c1cc2c(cc1O)CC[C@H]1[C@](C)(CO)CCC[C@]21C`, in assay [2], the Activity entry was “Dose-Dependent Effect”. The outcome in assay [1] was inactive. Besides, the inhibition entry in assay [3] was “Dose-Dependent Effect”.

With `C[C@@H]1CC[C@]2(C(=O)O)CC[C@]3(C)C(=CC[C@@H]4[C@@]5(C)C(CO)=CC(C)(C)[C@@H]5CC[C@]43C)[C@@H]2[C@]1(C)O` [HYPTASIENIC ACID], the result in assay [1] was inactive. The negative logarithm of the IC50 (pIC50) was less than 5.00 in assay [5], 5.13 in assay [6], less than 5.00 in assay [7] and less than 5.00 in assay [8].

In the case of `CC(C)c1c(O)ccc2c1CC[C@H]1C(C)(C)C(=O)CC[C@]21C`, the result in assay [1] was inactive. The inhibition result in assay [3] was “Dose-Dependent Effect”.

Take `CC(=O)O[C@H]1C(=O)[C@@]2(C)[C@H]([C@H](OC(=O)c3ccccc3)[C@]3(O)C[C@H](OC(=O)[C@H](O)[C@@H](NC(=O)c4ccccc4)c4ccccc4)C(C)=C1C3(C)C)[C@]1(OC(C)=O)CO[C@@H]1C[C@@H]2O` [PACLITAXEL]: the negative logarithm of the IC50 (pIC50) in assay [6] is 7.74; in assay [7], 7.55; in assay [8] it was 7.52.

For the molecule `C=C1C(=O)[C@@]23CC[C@@H]4C(C)(C)C(=O)CC[C@@]4(C)[C@@H]2CC[C@@H]1C3`, the outcome in assay [1] was inactive. The negative-log IC50 (pIC50) in assay [5] was less than 5.00; in assay [6] it was less than 5.00; in assay [7] it was less than 5.00; in assay [8], 5.08.

As to `C=C1CC[C@@H]2C(C)(C)[C@H](O)CC[C@@]2(C)C1CCC1=CCOC1=O` (stereo partly specified), in assay [1], the outcome was inactive.

Turning to `CC1(C)CC[C@]2(C(=O)O)CC[C@]3(C)C(=CCC4[C@@]5(C)C[C@@H](O)[C@@H](O)C(C)(C)[C@@H]5CC[C@]43C)C2C1` (stereo partly specified), the result in assay [1] was inactive.

Regarding `CC(C)C(=O)OC1=C[C@@]2(CO)C(CC[C@]3(C)C2CC=C2C4[C@](C(=O)O)(CC[C@@H](C)[C@@]4(C)O)CC[C@]23C)C(C)(C)C1` (stereo partly specified), the outcome in assay [1] was inactive.

In the case of `C=C1[C@@H]2CC[C@H]3[C@]4(C)CCC[C@](C)(CO)[C@H]4C[C@H](O)[C@]3(C2)[C@@H]1O`, in assay [1], the outcome was inactive.

For the molecule `CC(=O)[C@@H](C)CC[C@@]1(C(=O)O)C=C2C=CC3[C@@]4(C)C(C(=O)O)=CC(C)(C)[C@@H]4CC[C@@]3(C)[C@]2(C)CC1` (stereo partly specified), the result in assay [1] was inactive.

As for `C[C@@H]1CC[C@]2(C(=O)O)CC[C@]3(C)C(=CCC4[C@@]5(C)C[C@@H](O)OCC(C)(C)C5CC[C@]43C)C2[C@]1(C)O` (stereo partly specified), in assay [1], the result was inactive.

`CC1(C)CC[C@]2(C(=O)O)CC[C@]3(C)C(=C2C1)C=CC1[C@@]2(C)C[C@@H](O)[C@H](O)C(C)(C)[C@@H]2CC[C@]13C` (stereo partly specified): the result in assay [1] was inactive.

In the case of `CC(C)c1cc2c(cc1O)[C@@]1(C)CCC[C@](C)(CO)[C@@H]1CC2`, the inhibition entry in assay [3] was “Dose-Dependent Effect”.

Regarding `C=C1[C@@H]2CC[C@H]3[C@]4(C)CC[C@@H](O)C(C)(C)[C@H]4C[C@@H](O)[C@]3(C2)[C@@H]1O`, the result in assay [1] was inactive.

For `CC(C)c1cc2c(cc1O)[C@@]1(C)CC[C@H](O)C(C)(C)[C@@H]1CC2`, the result in assay [1] was inactive.

For the molecule `CC(C)c1cc2c(cc1O)C(=O)C[C@H]1C(C)(C)CCC[C@]21C`, the Activity entry in assay [2] is “Dose-Dependent Effect”; in assay [4], 86%. Further, the outcome in assay [1] was inactive. The inhibition result in assay [3] is “Dose-Dependent Effect”.

Consider `CC(C)c1c(O)ccc2c1CC[C@H]1[C@@](C)(C(=O)O)CCC[C@]21C`, for which, in assay [1], the outcome was inactive. The inhibition entry in assay [3] was “Dose-Dependent Effect”.
